Reference: ChEMBL document CHEMBL1201862, “PubChem BioAssay data set” (2004)
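Where inhibition never reached the appropriate level, the endpoint shown equals the highest concentration tested. Otherwise, values were interpolated linearly from a five-concentration, 48-hour dose response in 96-well plates. Abbreviation: GI50, concentration required for 50% inhibition of growth.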 Calls of active or inactive are those of the source. Rule as the data show it: active = GI50 up to about 1.1 µM and inactive = higher.

How the values were obtained:
Assay in all cases: DTP human tumour cell line panel, 48 h
[1] = system: COLO 205
[2] = system: HCC 2998
[3] = system: HCT-116
[4] = system: HL-60
[5] = system: HOP-92
[6] = system: HT-29
[7] = system: KM12
[8] = system: LOX IMVI
[9] = system: MOLT-4
[10] = system: Malme-3M
[11] = system: NCI-H23
[12] = system: NCI-H460
[13] = system: OVCAR-3
[14] = system: OVCAR-5
[15] = system: RPMI-8226
[16] = system: SF-268
[17] = system: SK-MEL-28
[18] = system: SN12C
[19] = system: SNB-75
[20] = system: UO-31

COc1ccc(C2c3cc4c(cc3OC(Nc3ccccc3)C2C)OCO4)cc1 (stereo not given)
GI50 [1]: 36.1 µM (inactive)
GI50 [2]: 67.9 µM (inactive)
GI50 [3]: 12.7 µM (inactive)
GI50 [4]: 22.2 µM (inactive)
GI50 [5]: 23.8 µM (inactive)
GI50 [6]: 31.7 µM (inactive)
GI50 [7]: 28.6 µM (inactive)
GI50 [8]: 27.7 µM (inactive)
GI50 [9]: 11.2 µM (inactive)
GI50 [10]: 63.5 µM (inactive)
GI50 [11]: 64 µM (inactive)
GI50 [12]: 7.98 µM (inactive)
GI50 [13]: 53.1 µM (inactive)
GI50 [14]: > 100 µM (inactive)
GI50 [15]: 26 µM (inactive)
GI50 [16]: 42.9 µM (inactive)
GI50 [17]: > 100 µM (inactive)
GI50 [18]: 61.1 µM (inactive)
GI50 [19]: 44.1 µM (inactive)
GI50 [20]: 29.5 µM (inactive)

CC1=NN(C(=O)c2ccccc2)C(=O)C1/N=N/c1ccccc1C(=O)O (stereo not given)
GI50 [1]: > 72.6 µM (inactive)
GI50 [2]: 19.8 µM (inactive)
GI50 [3]: 3.24 µM (inactive)
GI50 [4]: 3.53 µM (inactive)
GI50 [5]: 4.11 µM (inactive)
GI50 [6]: 52.1 µM (inactive)
GI50 [7]: 7.8 µM (inactive)
GI50 [8]: 11.5 µM (inactive)
GI50 [9]: 4.09 µM (inactive)
GI50 [10]: 10.9 µM (inactive)
GI50 [11]: 3.81 µM (inactive)
GI50 [12]: 3.67 µM (inactive)
GI50 [13]: 4.71 µM (inactive)
GI50 [14]: > 73.1 µM (inactive)
GI50 [15]: 4.36 µM (inactive)
GI50 [16]: 9.79 µM (inactive)
GI50 [17]: 89.1 µM (inactive)
GI50 [18]: 7.26 µM (inactive)
GI50 [19]: 1.8 µM (inactive)
GI50 [20]: 3.75 µM (inactive)

Cc1c2cc[n+](C)cc2c(COC2OC(CO)C(O)C2O)c2c3ccccc3n(C)c12 (stereo not given)
GI50 [1]: > 100 µM (inactive)
GI50 [2]: > 100 µM (inactive)
GI50 [3]: > 100 µM (inactive)
GI50 [4]: > 100 µM (inactive)
GI50 [5]: 77.6 µM (inactive)
GI50 [6]: > 100 µM (inactive)
GI50 [7]: > 100 µM (inactive)
GI50 [8]: > 100 µM (inactive)
GI50 [9]: 45.5 µM (inactive)
GI50 [10]: 62.1 µM (inactive)
GI50 [11]: 58.3 µM (inactive)
GI50 [12]: 19.2 µM (inactive)
GI50 [13]: > 100 µM (inactive)
GI50 [14]: > 100 µM (inactive)
GI50 [15]: 99.5 µM (inactive)
GI50 [16]: 15.8 µM (inactive)
GI50 [17]: 53 µM (inactive)
GI50 [18]: 6.85 µM (inactive)
GI50 [19]: 25 µM (inactive)
GI50 [20]: > 100 µM (inactive)

CN(C)CCNC(=O)c1cccc2c1Nc1ccccc1S2
GI50 [1]: 11.8 µM (inactive)
GI50 [2]: 13.9 µM (inactive)
GI50 [3]: 12.2 µM (inactive)
GI50 [4]: 5 µM (inactive)
GI50 [5]: 2.08 µM (inactive)
GI50 [6]: 11.7 µM (inactive)
GI50 [7]: 12.7 µM (inactive)
GI50 [8]: 12.2 µM (inactive)
GI50 [9]: 10.6 µM (inactive)
GI50 [10]: 14.8 µM (inactive)
GI50 [11]: 14.6 µM (inactive)
GI50 [12]: 11.2 µM (inactive)
GI50 [13]: 14.5 µM (inactive)
GI50 [14]: 13.4 µM (inactive)
GI50 [15]: 9.57 µM (inactive)
GI50 [16]: 15.8 µM (inactive)
GI50 [17]: 14.4 µM (inactive)
GI50 [18]: 13 µM (inactive)
GI50 [19]: 6.81 µM (inactive)
GI50 [20]: 10.1 µM (inactive)

CNc1cc2c(c3ccccc13)C(CCl)CN2C(=O)c1cc2cc(OC)c(OC)c(OC)c2[nH]1 (stereo not given)
GI50 [1]: 0.00227 µM (active)
GI50 [2]: < 0.01 µM (active)
GI50 [3]: 0.00106 µM (active)
GI50 [4]: 0.000123 µM (active)
GI50 [5]: 0.00484 µM (active)
GI50 [6]: 0.0013 µM (active)
GI50 [7]: 0.0038 µM (active)
GI50 [8]: 0.00106 µM (active)
GI50 [9]: 0.00053 µM (active)
GI50 [10]: < 0.01 µM (active)
GI50 [11]: 0.000465 µM (active)
GI50 [12]: 0.000212 µM (active)
GI50 [13]: 0.0226 µM (active)
GI50 [14]: 0.0052 µM (active)
GI50 [15]: 0.00455 µM (active)
GI50 [16]: 0.0017 µM (active)
GI50 [17]: 0.0122 µM (active)
GI50 [18]: 0.000881 µM (active)
GI50 [19]: 0.00252 µM (active)
GI50 [20]: 0.00223 µM (active)
